Assay type in all cases: cell-based
Test [1] has as its system non-phosphorylated β-catenin. Put plainly: Western blot of non-phosphorylated β-catenin content in DU4475 cells. Particulars: overnight, read-out: Non-phosphorylated β-catenin content inhibition IC50. An excerpt: (§1) The Wnt signaling pathway is a key pathway for abnormal tumor growth. In colon cancer, liver cancer, pancreatic cancer and other cancers, a large number of patients have abnormal activation of the Wnt signaling pathway. The Wnt signaling pathway depends on the fine balance of β-catenin protein level. When Wnt signaling is not activated, β-catenin is phosphorylated by CK1 and APC/Axin/GSK-3β complexes, and the β-catenin protein is kept at a low level through ubiquitin-dependent proteasome degradation. When the Wnt signaling pathway is activated, β-catenin maintains a stable state of non-phosphorylation, and non-phosphorylated β-catenin can be transported into the nucleus through Rac1 and other factors, and plays a transcriptional regulatory role by binding to LEF/TCF transcription factors in the nucleus, activates downstream target genes such as C-myc and Cyclin D1, and promotes cell proliferation. Therefore, abnormal activation of the Wnt signaling pathway in tumor cells will lead to abnormal proliferation of tumors. […]
(§2) Add 500 μL of the compound with the highest concentration shown in FIG. 1 to each well of the 6-well cell culture plate, and make a 10-fold gradient dilution of the compound concentration. […] Load the protein sample directly to the SDS-PAGE gel for electrophoresis separation, transfer the protein on the SDS-PAGE gel to the PVDF membrane; after the transfer was completed, the protein was blocked by Western blocking solution, then Rabbit anti-β-catenin non-phospho S37/After T41 (ab278503) was added and the protein was incubated at room temperature for one hour and washed, the content of non-phosphorylated β-catenin was detected by incubation with Goat Anti-Rabbit IgG H&L (HRP) (ab6721). […]
For orientation: A western blot detects proteins with antibodies after separation by electrophoresis.

Test [2] deals with non-phosphorylated β-catenin. Kind of test: Western blot of non-phosphorylated β-catenin content in Colo205 cells. An excerpt: The Wnt signaling pathway is a key pathway for abnormal tumor growth. In colon cancer, liver cancer, pancreatic cancer and other cancers, a large number of patients have abnormal activation of the Wnt signaling pathway. The Wnt signaling pathway depends on the fine balance of β-catenin protein level. When Wnt signaling is not activated, β-catenin is phosphorylated by CK1 and APC/Axin/GSK-3β complexes, and the β-catenin protein is kept at a low level through ubiquitin-dependent proteasome degradation. When the Wnt signaling pathway is activated, β-catenin maintains a stable state of non-phosphorylation, and non-phosphorylated β-catenin can be transported into the nucleus through Rac1 and other factors, and plays a transcriptional regulatory role by binding to LEF/TCF transcription factors in the nucleus, activates downstream target genes such as C-myc and Cyclin D1, and promotes cell proliferation. Therefore, abnormal activation of the Wnt signaling pathway in tumor cells will lead to abnormal proliferation of tumors. In order to explore the inhibitory mechanism of the compound on the proliferation of tumor cell lines, the compound AN10250399, AN10250421 or AN10250484 was used to treat sensitive cells Colo205, DU4475 and HepG2, and Western blot was used to detect the content of non-phosphorylated β-catenin in the Wnt pathway to clarify the effect of the compound on content of the non-phosphorylated β-catenin.
Add 500 μL of the compound with the highest concentration shown in FIG. 1 to each well of the 6-well cell culture plate, and make a 10-fold gradient dilution of the compound concentration. Then 500 μL of 10^6 Colo205, DU4475 and HepG2 or 500 μL of medium were inoculated into each well, and corresponding solvent treatment was performed simultaneously as negative control wells. The cells were placed in a 5% CO2 cell incubator, cultured overnight at 37° C. The culture medium was removed, washed once with PBS, 200 μL of RIPA buffer containing protease inhibitors was added to each well, and the protein lysate was collected after lysing on ice for 20 min. Add an appropriate amount of concentrated SDS-PAGE protein loading buffer to the collected protein lysate samples, and heat at 100° C. or in a boiling water bath for 3-5 minutes to fully denature the protein. Load the protein sample directly to the SDS-PAGE gel for electrophoresis separation, transfer the protein on the SDS-PAGE gel to the PVDF membrane; after the transfer was completed, the protein was blocked by Western blocking solution, then Rabbit anti-β-catenin non-phospho S37/After T41 (ab278503) was added and the protein was incubated at room temperature for one hour and washed, the content of non-phosphorylated β-catenin was detected by incubation with Goat Anti-Rabbit IgG H&L (HRP) (ab6721). As a control, glyceraldehyde-3-phosphate dehydrogenase (GAPDH) was used as an internal standard protein

For test [3], the system named is non-phosphorylated β-catenin. Kind of test: Western blot of non-phosphorylated β-catenin content in HepG2 cells. Particulars: overnight, read-out: Non-phosphorylated β-catenin content inhibition IC50.
Description: as §1, §2

Test [4] concerns non-phosphorylated β-catenin. Put plainly: Non-phosphorylated β-catenin content in Colo205-LUC-TCF/LEF cells, compound plus MG132. Particulars: 200 nM compound plus 2 μM MG132, 4 hours, FIG. 2. Here is the method: Add 500 ul medium containing 200 nM compound plus 2 μM MG132 or 200 nM compound plus control solvent to each well of a 6-well cell culture plate, then add 500 ul containing 10^6 Colo205-LUC-TCF/LEF cells respectively, and incubate for 4 hours Finally, the protein was collected to detect the content of non-phosphorylated β-catenin.

Residues, ends and D or L forms follow the SMILES beside them. *: point of attachment. Cbz = O=C(OCc1ccccc1)*

As a reminder, the IC50 is the point on the concentration scale where inhibition reaches its midpoint. Turning to `Cc1nc(NCc2ccc(Oc3cnc(C(F)(F)F)nc3)nc2)nc2c1NC(=O)[C@H](C)N2C` [AN10250421], the concentration for half-maximal inhibition (IC50) was 2.2 nM in test [1]; 10 nM in test [2] (overnight, Western blot, read-out: Non-phosphorylated β-catenin content inhibition IC50); 51.6 nM in test [3]. Further, the “Effect on content of non-phosphorylated β-catenin (active β-catenin), in words” value in test [2] (FIG. 1) was “decrease the content of non-phosphorylated β-catenin”.

For the compound `CC(C)C[C@@H](C=O)NC(=O)[C@H](CC(C)C)NC(=O)[C@H](CC(C)C)NC(=O)OCc1ccccc1` [MG132] (Cbz-Leu-Leu-Leu-aldehyde), the “Effect of MG132 on the reduction of non-phosphorylated β-catenin content caused by AN10250484” value in test [4] is listed as “reverses the reduction of the content of non-phosphorylated β-catenin”.

These data come from patent US20240085425A1, “BIOMARKER AND APPLICATION THEREOF” (ADLAI NORTYE BIOPHARMA CO., LTD., priority 2022, published 2024).
